{"source": "patent US12552783B2", "about": "“Modulators of proteolysis and associated methods of use” (Arvinas Operations, Inc., priority 2018, dated 2026)", "target": "KRas (Homo sapiens, UniProt P01116, G12C)", "test": "KRas degradation in NCI-H2030 cells by Western blot, normalized to GAPDH (data of Table 14)", "format": "cell-based", "design": "host or cells: NCI-H2030", "conditions": "for Dmax: NCI-H2030; for Percent Degradation at Indicated Concentration (μM): H2030", "description": "Cell Lines, Antibodies, and Reagents. NCI-H2030 (CRL-5914) and SW1573 (CRL-2170) cells were purchased from ATCC. Both cell lines are homozygous for the G12C mutation in KRas. NCI-H2030 cells were cultured in RPMI-1640 medium containing 1% penicillin-streptomycin and 10% fetal bovine serum (FBS). SW1573 cells were cultured in DMEM containing 1% penicillin-streptomycin and 10% FBS. The KRas detection antibody (Cat. No. LS-C175665) was purchased from LifeSpan Biosciences and was used at a dilution of 1:2000. GAPDH was detected using an antibody purchased from Cell Signaling Technology (Cat. No. 5174) and was diluted 1:3000. Secondary anti-mouse and anti-rabbit detection antibodies were purchased from Cell Signaling Technology (Cat. Nos. 7076 and 7074, respectively).\nCompound Treatment and Western Blotting of the Data of Table 14. Either NCI-H2030 or SW1573 cells were plated in 12-well plates and allowed to adhere overnight at 37° C. in an incubator containing 5% CO2. The following day, the medium was replaced with the appropriate medium lacking FBS to induce starvation. Cells were returned to the incubator for an additional 24 hours following media exchange. […] Cells were treated with VHL-based compounds for 24 hours and all other compounds for 72 hours. Following treatment, cells were lysed in RIPA buffer (Thermo Fisher Cat. No. 89900) containing phosphatase (Thermo Fisher Cat. No. 1861277) and protease (Thermo Fisher Cat. No. 78429) inhibitor cocktails. Lysates were cleared at 13,000 rpm for 15 minutes and supernatants were assayed for total protein concentration using the Pierce BCA assay system (Thermo Fisher Cat. No. 23225). For each sample, 10 μg total protein was resolved on a 12% Bis-Tris gel and then transferred to a nitrocellulose membrane. After blocking in 3% BSA in TBST (Tris-buffered Saline with 0.1% Tween-20) for 1 hour at room temperature, membranes were probed with the primary antibody (LS Bio Cat. No. LS-C175665) overnight at 4° C. After incubation with the secondary antibody, the following day membranes were visualized using the SuperSignal™ West Femto substrate (Thermo Fisher Cat. No. 34095). The KRas signal in each lane was normalized to GAPDH and percent degradation was either estimated as less than 25% by visual inspection (C in Table 13) or quantitated relative to the DMSO control lane using BIO-RAD Image Lab 5.2.1, and all data was plotted using GraphPad PRISM 6.07.\nDC50 is the half-maximal degradation concentration—i.e., the concentration at which 50% degradation is observed. DMax is the maximum degradation efficacy is achieved—i.e., the maximal degradation observed) degradation data."}
{"compound": "CCC(=O)N1CCN(c2nc(NCCC(=O)N(C)CCOCCOCCOCCOc3cc(-c4scnc4C)ccc3CNC(=O)[C@@H]3C[C@@H](O)CN3C(=O)[C@H](c3cc(C)no3)C(C)C)nc3c(F)c(-c4cc(O)cc5ccccc45)c(Cl)cc23)CC1", "note": "[compound 335, (2S,4R)-N-(2-((15-((6-chloro-8-fluoro-7-(3-hydroxynaphthalen-1-yl)-4-(4-propionylpiperazin-1-yl)quinazolin-2-yl)amino)-12-methyl-13-oxo-3,6,9-trioxa-12-azapentadecyl)oxy)-4-(4-methylthiazol-5-yl)benzyl)-4-hydroxy-1-((S)-3-methyl-2-(3-methylisoxazol-5-yl)butanoyl)pyrrolidine-2-carboxamide]", "values": [{"measurement": "Percent Degradation at Indicated Concentration (μM): 0.3", "setting": "H2030 cells, 0.3 μM", "value": "C (C ≤ 35)"}, {"measurement": "Percent Degradation at Indicated Concentration (μM): 1", "setting": "H2030 cells, 1 μM", "value": "C (C ≤ 35)"}, {"measurement": "Percent Degradation at Indicated Concentration (μM): 3", "setting": "H2030 cells, 3 μM", "value": "C (C ≤ 35)"}, {"measurement": "Dmax", "setting": "H2030 cells", "value": "≤ 35", "unit": "%"}]}
{"compound": "Cc1ncsc1-c1ccc([C@H](C)NC(=O)[C@@H]2C[C@@H](O)CN2C(=O)[C@@H](NC(=O)COCCOCCOCCOCCN(C)C(=O)CCNc2nc(N3CCN(C(N)=O)CC3)c3cc(Cl)c(-c4cc(O)cc5ccccc45)c(F)c3n2)C(C)(C)C)cc1", "note": "[compound 184, 4-(6-chloro-8-fluoro-2-(((S)-20-((2S,4R)-4-hydroxy-2-(((S)-1-(4-(4-methylthiazol-5-yl)phenyl)ethyl)carbamoyl)pyrrolidine-1-carbonyl)-4,21,21-trimethyl-3,18-dioxo-7,10,13,16-tetraoxa-4,19-diazadocosyl)amino)-7-(3-hydroxynaphthalen-1-yl)quinazolin-4-yl)piperazine-1-carboxamide]", "values": [{"measurement": "Percent Degradation at Indicated Concentration (μM)", "setting": "0.3 μM", "value": "C (Percent Degradation: C ≤ 35)"}, {"measurement": "Percent Degradation at Indicated Concentration (μM)", "setting": "1 μM", "value": "C (Percent Degradation: C ≤ 35)"}, {"measurement": "Percent Degradation at Indicated Concentration (μM)", "setting": "3 μM", "value": "C (Percent Degradation: C ≤ 35)"}, {"measurement": "Dmax", "value": "≤ 35", "unit": "%"}]}
{"compound": "CCC(=O)N1CCN(c2nc(NCCC(=O)N(C)CCOCCOc3cc(-c4scnc4C)ccc3CNC(=O)[C@@H]3C[C@@H](O)CN3C(=O)[C@H](c3cc(C)no3)C(C)C)nc3c(F)c(-c4cc(O)cc5ccccc45)c(Cl)cc23)CC1", "note": "[compound 331, (2S,4R)-N-(2-(2-(2-(3-((6-chloro-8-fluoro-7-(3-hydroxynaphthalen-1-yl)-4-(4-propionylpiperazin-1-yl)quinazolin-2-yl)amino)-N-methylpropanamido)ethoxy)ethoxy)-4-(4-methylthiazol-5-yl)benzyl)-4-hydroxy-1-((S)-3-methyl-2-(3-methylisoxazol-5-yl)butanoyl)pyrrolidine-2-carboxamide]", "values": [{"measurement": "Percent Degradation at Indicated Concentration (μM): 0.3", "setting": "H2030 cells, 0.3 μM", "value": "C (C ≤ 35)"}, {"measurement": "Percent Degradation at Indicated Concentration (μM): 1", "setting": "H2030 cells, 1 μM", "value": "C (C ≤ 35)"}, {"measurement": "Percent Degradation at Indicated Concentration (μM): 3", "setting": "H2030 cells, 3 μM", "value": "C (C ≤ 35)"}, {"measurement": "Dmax", "setting": "H2030 cells", "value": "≤ 35", "unit": "%"}]}
{"compound": "C=CC(=O)N1CCN(c2nc(NCCC(=O)N(C)CCOCCOCCOCCOc3ccc4c(c3)C(=O)N(C3CCC(=O)NC3=O)C4=O)nc3c(F)c(-c4cc(O)cc5ccccc45)c(Cl)cc23)CC1", "note": "(stereo not shown) [compound 62, 3-((4-(4-acryloylpiperazin-1-yl)-6-chloro-8-fluoro-7-(3-hydroxynaphthalen-1-yl)quinazolin-2-yl)amino)-N-(2-(2-(2-(2-((2-(2,6-dioxopiperidin-3-yl)-1,3-dioxoisoindolin-5-yl)oxy)ethoxy)ethoxy)ethoxy)ethyl)-N-methylpropanamide]", "values": [{"measurement": "Percent Degradation at Indicated Concentration (μM): 0.3", "setting": "H2030 cells, 0.3 μM", "value": "C (C ≤ 35)"}, {"measurement": "Percent Degradation at Indicated Concentration (μM): 1", "setting": "H2030 cells, 1 μM", "value": "C (C ≤ 35)"}, {"measurement": "Percent Degradation at Indicated Concentration (μM): 3", "setting": "H2030 cells, 3 μM", "value": "C (C ≤ 35)"}, {"measurement": "Dmax", "setting": "H2030 cells", "value": "≤ 35", "unit": "%"}]}
